From PubChem BioAssay AID248 (DTP/NCI, 2004)
Several values for one entry are separate records, joined by “and”; a condition that tells them apart may be missing. Identical values can stand only once. Toxic doses and inconclusive results are not listed. No stated cut-off is given here; in the data, active means T/C of 150% or more; inactive means T/C below 125%.

System: L1210 leukemia ip in BDF1 mice, survival T/C
Test: NCI In Vivo Anticancer Drug Screen. Data for tumor model L1210 Leukemia (intraperitoneal) in B6D2F1 (BDF1) mice
Settings: endpoint: mean survival time, higher = longer survival
Summary of the method: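 Ratio derived from survival: compound-dosed mice over vehicle-dosed mice, all bearing a transplantable tumor.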

[1] = dose: 100.0 mg/kg/injection, schedule: Q04DX003 (ip), vehicle: Klucel (hydroxypropylcellulose) (HPC)
[2] = dose: 200.0 mg/kg/injection, schedule: Q04DX003 (ip), vehicle: Klucel (hydroxypropylcellulose) (HPC)
[3] = dose: 400.0 mg/kg/injection, schedule: Q04DX003 (ip), vehicle: Klucel (hydroxypropylcellulose) (HPC)
[4] = dose: 100.0 mg/kg/injection, schedule: Q01DX009 (ip), vehicle: saline
[5] = dose: 200.0 mg/kg/injection, schedule: Q01DX009 (ip), vehicle: saline
[6] = dose: 400.0 mg/kg/injection, schedule: Q01DX009 (ip), vehicle: saline
[7] = dose: 100.0 mg/kg/injection, schedule: Q01DX009 (ip), vehicle: Klucel (hydroxypropylcellulose) (HPC)
[8] = dose: 100.0 mg/kg/injection, schedule: Q04DX002 (ip), vehicle: Klucel (hydroxypropylcellulose) (HPC)
[9] = dose: 100.0 mg/kg/injection, schedule: Q01DX009 (ip), vehicle: saline with Tween-80
[10] = dose: 200.0 mg/kg/injection, schedule: Q01DX009 (ip), vehicle: saline with Tween-80
[11] = dose: 100.0 mg/kg/injection, schedule: Q04DX003 (ip), vehicle: saline with Tween-80
[12] = dose: 200.0 mg/kg/injection, schedule: Q04DX003 (ip), vehicle: saline with Tween-80
[13] = dose: 400.0 mg/kg/injection, schedule: Q04DX003 (ip), vehicle: saline with Tween-80
[14] = dose: 100.0 mg/kg/injection, schedule: Q01DX001 (ip), vehicle: saline with Tween-80
[15] = dose: 200.0 mg/kg/injection, schedule: Q01DX001 (ip), vehicle: saline with Tween-80
[16] = dose: 400.0 mg/kg/injection, schedule: Q01DX001 (ip), vehicle: saline with Tween-80
[17] = dose: 400.0 mg/kg/injection, schedule: Q01DX009 (ip), vehicle: saline with Tween-80
[18] = dose: 100.0 mg/kg/injection, schedule: Q04DX002 (ip), vehicle: saline with Tween-80
[19] = dose: 200.0 mg/kg/injection, schedule: Q04DX002 (ip), vehicle: saline with Tween-80
[20] = dose: 100.0 mg/kg/injection, schedule: Q01DX001 (ip), vehicle: carboxymethylcellulose (CMC)
[21] = dose: 200.0 mg/kg/injection, schedule: Q01DX001 (ip), vehicle: carboxymethylcellulose (CMC)
[22] = dose: 400.0 mg/kg/injection, schedule: Q01DX001 (ip), vehicle: carboxymethylcellulose (CMC)
[23] = dose: 75.0 mg/kg/injection, schedule: Q01DX001 (ip), vehicle: saline

Measured: T/C

COC(OC)c1nc(N)nc(N)c1-c1ccccc1
inactive: dose: 100.0 mg/kg/injection, schedule: Q01DX008 (ip), vehicle: Klucel (hydroxypropylcellulose) (HPC) 108 % of control | [1] 103 % of control | [2] 95 % of control | [3] 94 % of control

CCN1C(=O)CC(O)C1=O (stereo not given)
inactive: [4] 101 % of control | [5] 100 % of control | [6] 97 % of control

COc1cccc(Nc2ccc(C(=O)O)cc2[N+](=O)[O-])c1
inactive: dose: 100.0 mg/kg/injection, schedule: Q04DX003 (ip), vehicle: water 98 % of control | dose: 200.0 mg/kg/injection, schedule: Q04DX003 (ip), vehicle: water 103 % of control | dose: 400.0 mg/kg/injection, schedule: Q04DX003 (ip), vehicle: water 98 % of control

CC(C)(C)N1CC(C(O)c2ccccc2)C1c1ccccc1 (stereo not given)
inactive: [1] 98 % of control | [2] 95 % of control

O=[N+]([O-])c1ccc(Oc2cccc(C(F)(F)F)c2)cc1
inactive: [1] 95 % of control | [2] 96 % of control | [3] 96 % of control

O=C(c1ccccc1)C(CBr)C(Br)c1ccccc1 (stereo not given)
inactive: [7] 90 % of control | [1] 98 % of control | dose: 200.0 mg/kg/injection, schedule: Q01DX009 (ip), vehicle: Klucel (hydroxypropylcellulose) (HPC) 101 % of control | [2] 95 % of control | dose: 400.0 mg/kg/injection, schedule: Q01DX009 (ip), vehicle: Klucel (hydroxypropylcellulose) (HPC) 93 % of control | [3] 88 % of control

CCOC(=O)/C(C#N)=C/c1cccn1Cc1cc(OC)c(OC)cc1[N+](=O)[O-]
inactive: dose: 25.0 mg/kg/injection, schedule: Q04DX002 (ip), vehicle: Klucel (hydroxypropylcellulose) (HPC) 110 % of control | dose: 50.0 mg/kg/injection, schedule: Q04DX002 (ip), vehicle: Klucel (hydroxypropylcellulose) (HPC) 89 % of control | [8] 96 % of control

CC(O)CSc1ccccc1 (stereo not given)
inactive: [9] 95 % of control | [10] 88 % of control

O=C(C1C2CCC(C2)C1C(=O)N1CCCCC1)N1CCCCC1 (stereo not given)
inactive: [11] 100 % of control | [12] 100 % of control | [13] 100 % of control

CCC(CC)CCCC(C)Nc1ccnc2cc(Cl)ccc12 (stereo not given)
inactive: dose: 6.25 mg/kg/injection, schedule: Q01DX009 (ip), vehicle: saline 101 % of control | dose: 12.5 mg/kg/injection, schedule: Q01DX009 (ip), vehicle: saline 98 % of control | dose: 25.0 mg/kg/injection, schedule: Q01DX009 (ip), vehicle: saline 95 % of control

CSc1nncc(=O)[nH]1.[Hg]
inactive: dose: 5.0 mg/kg/injection, schedule: Q01DX001 (ip), vehicle: carboxymethylcellulose (CMC) 91 % of control | dose: 10.0 mg/kg/injection, schedule: Q01DX001 (ip), vehicle: carboxymethylcellulose (CMC) 102 % of control

CC(=O)NC(c1ccccc1)C(NC(=O)c1ccccc1)c1ccccc1 (stereo not given)
inactive: [14] 92 % of control | [15] 94 % of control | [16] 89 % of control

O=[N+]([O-])c1ccc(Sc2ccc([N+](=O)[O-])cc2)cc1
inactive: dose: 50.0 mg/kg/injection, schedule: Q01DX009 (ip), vehicle: saline with Tween-80 92 % of control | [9] 91 % of control | [10] 89 % of control

Cc1ccc(COC(=O)Nc2ccc(C)c(NC(=O)OCc3ccc(C)cc3)c2)cc1
inactive: [9] 90 % of control | [17] 90 % of control

CC(C)C(=O)Nc1ccc(S(=O)(=O)Cl)cc1
inactive: [11] 95 % of control | [12] 90 % of control | [13] 86 % of control

Oc1ccc(-c2cc(O)c(-c3ccc(O)cc3)cc2O)cc1
inactive: [4] 95 % of control

Nc1ccccc1SC1CC(=O)N(c2ccccc2)C1=O (stereo not given)
inactive: dose: 100.0 mg/kg/injection, schedule: Q01DX009 (ip), vehicle: other 95 % of control | dose: 100.0 mg/kg/injection, schedule: Q04DX003 (ip), vehicle: saline 94 % of control | dose: 200.0 mg/kg/injection, schedule: Q01DX009 (ip), vehicle: other 92 % of control | dose: 200.0 mg/kg/injection, schedule: Q04DX003 (ip), vehicle: saline 89 % of control | dose: 400.0 mg/kg/injection, schedule: Q01DX009 (ip), vehicle: other 92 % of control | dose: 400.0 mg/kg/injection, schedule: Q04DX003 (ip), vehicle: saline 91 % of control

CCCCCCC(O)C(=O)O (stereo not given)
inactive: [18] 102 % of control | [19] 102 % of control

COC(=O)c1cn[nH]c1N=Nc1ccc(N(CCCl)CCCl)cc1
inactive: dose: 75.0 mg/kg/injection, schedule: Q01DX001 (ip), vehicle: other 109 % of control | dose: 150.0 mg/kg/injection, schedule: Q01DX001 (ip), vehicle: other 124 % of control | dose: 300.0 mg/kg/injection, schedule: Q01DX001 (ip), vehicle: other 119 % of control

Clc1ccc2c(c1)N(C1CCCN(Cc3ccccc3)C1)c1ccccc1S2 (stereo not given)
inactive: [20] 94 % of control | [21] 94 % of control | [22] 90 % of control

COc1ccccc1C1CCCCC1OS(C)(=O)=O (stereo not given)
inactive: [20] 103 % of control | [21] 111 % of control | [22] 92 % of control

CC(C)Nc1ccc(O)cc1
inactive: [8] 106 % of control | dose: 200.0 mg/kg/injection, schedule: Q04DX002 (ip), vehicle: Klucel (hydroxypropylcellulose) (HPC) 95 % of control

NS(=O)(=O)c1ccc(NC(=O)Nc2ccccc2F)cc1
inactive: [14] 102 % of control | [9] 98 % of control and 104 % of control | [18] 93 % of control and 97 % of control | [15] 101 % of control | [10] 93 % of control and 102 % of control | [19] 98 % of control and 105 % of control | [16] 90 % of control | [17] 98 % of control and 102 % of control | dose: 400.0 mg/kg/injection, schedule: Q04DX002 (ip), vehicle: saline with Tween-80 96 % of control and 97 % of control

[O]=[Sb]([OH])([c]1ccc(Cl)cc1)[c]1ccc(Cl)cc1
inactive: [23] 116 % of control

O=C(O)c1ccccc1C(=O)c1cccs1
inactive: [4] 94 % of control | dose: 100.0 mg/kg/injection, schedule: Q04DX003 (ip), vehicle: other 113 % of control | [5] 97 % of control | dose: 200.0 mg/kg/injection, schedule: Q04DX003 (ip), vehicle: other 105 % of control | [6] 96 % of control | dose: 400.0 mg/kg/injection, schedule: Q04DX003 (ip), vehicle: other 94 % of control

CC1(C)C(=O)C(O)=C[C@@]2(C)C1=CC[C@H]1[C@@H]3CC[C@H](O)[C@@]3(C)CC[C@@H]12
inactive: dose: 100.0 mg/kg/injection, schedule: Q01DX001 (sc), vehicle: steriod suspending solution 97 % of control | dose: 200.0 mg/kg/injection, schedule: Q01DX001 (sc), vehicle: steriod suspending solution 104 % of control | dose: 400.0 mg/kg/injection, schedule: Q01DX001 (sc), vehicle: steriod suspending solution 97 % of control

O=C(Nc1ccccc1)Oc1c(Cl)cc(Cl)c(Cl)c1[N+](=O)[O-]
inactive: dose: 25.0 mg/kg/injection, schedule: Q01DX009 (ip), vehicle: Klucel (hydroxypropylcellulose) (HPC) 100 % of control | dose: 50.0 mg/kg/injection, schedule: Q01DX009 (ip), vehicle: Klucel (hydroxypropylcellulose) (HPC) 93 % of control | [7] 91 % of control

CCCCCC(=O)NC1CCCCC1
inactive: [23] 89 % of control | dose: 150.0 mg/kg/injection, schedule: Q01DX001 (ip), vehicle: saline 89 % of control

CC1([N+](=O)[O-])COP(=O)(O)OC1 (stereo not given) (tested in a mixture with another compound)
inactive: [20] 109 % of control | dose: 100.0 mg/kg/injection, schedule: Q01DX001 (ip), vehicle: saline 101 % of control [middle of 4 runs] | [21] 109 % of control | dose: 200.0 mg/kg/injection, schedule: Q01DX001 (ip), vehicle: saline 102 % of control [middle of 4 runs] | [22] 107 % of control | dose: 400.0 mg/kg/injection, schedule: Q01DX001 (ip), vehicle: saline 101 % of control and 102 % of control and 103 % of control
